Assay results published in patent US10233202B2, “Tenofovir monobenzyl ester phosphamide prodrug, preparation method and use thereof” (JIANGSU TASLY DIYI PHARMACEUTICAL CO., LTD., priority 2015, dated 2019).
pEC50, pIC50: −log10 of the molar value. Structures can show the parent of a compound that is named as a salt. Where two headings read alike, the source gives them in different places.

Legend:
HBV = assay: Cell based anti-HBV activity test, HBV DNA in HepG2.2.15 cell supernatant by qPCR; details: Hepatitis B virus, HepG2.2.15, HepG2.2.15 cells, read-out: EC50
Protocol: (§1) 8.1. Dilution of the compounds: the initial concentration of each compound in the in vitro anti-HBV activity test was 1 μM, with 3-fold serial dilution to 8 concentrations; the initial concentration of each compound in the cytotoxicity test was 100 μM, with 3-fold serial dilution to 8 concentrations; DMSO was used for the dilution of the compound mother liquor. The initial concentrations of the reference compound TDF for the anti-HBV activity test in vitro and the cytotoxicity test were all set at 0.2 μM, with 3-fold serial dilution to 8 concentrations.
8.2. Anti-HBV activity test in vitro: the HepG2.2.15 cells were plated in the 96-well plate (4×10^4 cells/well), and cultured overnight at 37° C. in 5% CO2. On second day, fresh culture solutions containing compounds of different concentrations were added to the culture wells. See Table 2 for the compound distribution. On 5th day, the used culture solutions in the culture wells were sucked and discarded, and fresh culture solutions containing compounds of different concentrations were added. On 8th day, the supernatant in the culture wells was collected for the extraction of HBV DNA in the supernatant. qPCR test was used to detect the concentration of HBV DNA content in the HepG2.2.15 supernatant.
8.4. Data analysis and calculation of the inhibition percentage and relative cell viability: The inhibition percentage was calculated using the following formula: % Inh.=[(HBV quantity of DMSO control−HBV quantity of sample)/HBV quantity of DMSO control]×100%
9.1 Drugs: the dilution method and concentrations of compound 3, the reference compound (CN201380030061.6, and the compound shown in claim 36 (abbreviation: compound 7), and the isomer thereof) were the same as those in example 1.
(§2) 9.2 Test method: the test was carried out according to the procedure in example 1.

in vitro = format: cell-based; details: human, HepG2.2.15 cells
Protocol: (§3) The concentration of HBV DNA in the HepG2.2.15 cell supernatant was detected through the real-time fluorescence quantitative PCR (qPCR) method to determine the anti-HBV activity of the compound in the HepG2.2.15 cells, and the effect of the testing compounds to the HepG2.2.15 cell activity was detected through Cell-titer Blue.
as §1
(§4) 8.3. Treatment of the cells in the cell viability test: the HepG2.2.15 cells were plated in the 96-well plate (4×10^4 cells/well), and cultured overnight at 37° C. in 5% CO2. On 2nd day, fresh culture solutions containing compounds of different concentrations were added to the culture wells. See Table 3 for the compound distribution. On 5th day, the used culture solutions in the culture wells were sucked and discarded, and fresh culture solutions containing compounds of different concentrations were added. On 8th day, Cell-titer Blue agent was added to each well, and the microplate reader was used to detect the fluorescence value of each well.
(§5) The cell viability percentage was calculated using the following formula: % cell viability=(fluorescence of sample−fluorescence of medium control)/(fluorescence of DMSO control−fluorescence of medium control)[…] 100%
as §2

HIV-1 IIIB = assay: In vitro anti-HIV activity test in MT-4 cells infected with HIV-1 IIIB (CellTiter Glo); format: cell-based; details: Human immunodeficiency virus 1, MT4, 120 h; MT-4 cells infected with HIV-1 IIIB, 5 days; read-out: EC50
Protocol: 9.1. Dilution and concentrations of the compounds and the reference compound (CN01813161GS-7340, TDF) were the same as those in example 1.
9.2. In vitro anti-HIV activity test: after MT-4 cells were infected with 24 TCID50HIV-1 IIIB/1×10^5 cells (2.4 TCID50/well) at 37° C. for 1 hour, they were plated in the 96-well plate containing the compounds of different concentrations ([…]) and cultured at 37° C. in 5% CO2 for 5 days. CellTiter Glo was used to determine the activity to calculate the EC50 value.
(§6) 9.4. Data analysis and calculation of the inhibition percentage: the activity percentage was calculated using the following formula: Activity (%) =(Raw datacpd−AverageVC)/(AverageCC−AverageVC)*100Cell Viability (%)=Raw datacpd/AverageCC*100

[1] = Cell viability test in MT-4 cells (CellTiter Glo); format: cell-based; details: human
Protocol: 9.3. Treatment of the cells in the cell viability test: parallel tests were carried out using the same method as that in 9.2, except that the 96-well plate containing the compounds of different concentrations were replaced with the blank 96-well plate, and CellTiter Glo was used to determine the cell viability to calculate the CC50 value.
as §6

[2] = Stability in the simulated gastric fluid; format: in vitro ADME; details: 10 μM
Protocol: (§7) The following stability test were carried out according to the prior art, and the data of the stability test shown in the table were the residue percentages after the test compounds were incubated for different period of time under the test condition.

[3] = Stability in the simulated intestinal fluid; format: in vitro ADME; details: 10 μM
Protocol: as §7

[4] = Stability in the human blood; format: in vitro ADME; details: 2 μM
Protocol: as §7

[5] = Stability in the human liver S9; format: in vitro ADME; details: human liver S9, 1 μM
Protocol: as §7

hERG K-channel = hERG K-channel (Homo sapiens, UniProt Q12809); assay: hERG manual whole-cell patch clamp in CHO cells (cardiotoxicity study); details: IC50, hERG current, room temperature
hERG K-channel, sequence (Q12809 whole entry): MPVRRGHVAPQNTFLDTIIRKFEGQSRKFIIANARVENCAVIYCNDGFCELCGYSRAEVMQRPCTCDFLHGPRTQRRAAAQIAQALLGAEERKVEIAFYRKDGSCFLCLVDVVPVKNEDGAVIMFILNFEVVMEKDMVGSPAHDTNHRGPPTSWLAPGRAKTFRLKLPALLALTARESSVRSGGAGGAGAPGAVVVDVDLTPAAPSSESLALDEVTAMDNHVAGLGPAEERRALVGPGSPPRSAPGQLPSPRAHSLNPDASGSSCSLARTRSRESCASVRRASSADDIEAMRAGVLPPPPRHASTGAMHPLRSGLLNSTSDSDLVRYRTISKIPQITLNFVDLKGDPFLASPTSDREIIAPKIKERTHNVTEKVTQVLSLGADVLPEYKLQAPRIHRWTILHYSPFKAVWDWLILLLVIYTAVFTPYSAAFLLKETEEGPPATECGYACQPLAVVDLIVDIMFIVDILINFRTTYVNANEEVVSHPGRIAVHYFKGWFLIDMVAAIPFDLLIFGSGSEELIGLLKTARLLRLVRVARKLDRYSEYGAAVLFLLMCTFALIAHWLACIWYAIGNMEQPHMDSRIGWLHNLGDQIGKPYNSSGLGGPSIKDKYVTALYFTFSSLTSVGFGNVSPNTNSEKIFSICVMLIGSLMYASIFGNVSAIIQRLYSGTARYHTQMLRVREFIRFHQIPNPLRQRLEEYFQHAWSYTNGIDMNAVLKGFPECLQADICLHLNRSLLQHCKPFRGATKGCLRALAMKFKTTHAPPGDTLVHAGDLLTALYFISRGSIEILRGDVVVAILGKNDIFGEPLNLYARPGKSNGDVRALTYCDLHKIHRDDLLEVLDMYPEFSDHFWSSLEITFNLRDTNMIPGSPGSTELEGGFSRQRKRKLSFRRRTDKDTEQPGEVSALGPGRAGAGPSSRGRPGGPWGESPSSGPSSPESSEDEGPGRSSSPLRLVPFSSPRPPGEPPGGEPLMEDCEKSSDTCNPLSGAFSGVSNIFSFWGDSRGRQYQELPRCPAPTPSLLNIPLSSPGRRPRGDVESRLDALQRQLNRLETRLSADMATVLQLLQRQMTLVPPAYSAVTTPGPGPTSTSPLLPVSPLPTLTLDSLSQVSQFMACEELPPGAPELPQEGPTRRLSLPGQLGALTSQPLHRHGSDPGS
Protocol: The CHO cells obtained from AVivaBiosciences that could stably express the hERG K-channel were used in the test, and the cells were incubated at 37° C. in 5% CO2 and under constant humidity.
The final concentration of DMSO in the extracellular fluid was not higher than 0.30%.
The whole-cell patch clamp technique was used on the Multiclamp patch-clamp amplifier to test the compound at room temperature, the output signal was digitalized using the DIgiDAta 1440 A/D-D/A plate, and the Pclamp10 software was used for the control of the recording. The minimum sealing resistance was set at 500 MOh/ms, and the minimum specific hERG current was set at 0.4 nA for quality control.
Clampfit (V10.2, Molecular Devices), Excel 2003 and GraphPad Prism 5.0 were used for the data analysis. The calculation formula of the current: I/Icontrol=Bottom+(Top−Bottom)/(1+10^((LogIC50−Log C)*Hillslope

HepG2.2.15 cells = assay: in vitro; format: cell-based; details: comparative test, Table 4
Protocol: as §3, §1, §4, §5, §2

[6] = oral, after intestinal absorption; cited from earlier work
[7] = Cell-titer Blue on 8th day, Table 3

| SMILES | pEC50 (HBV; comparative test, Table 4) | pEC50 (HIV-1 IIIB) | CC50 at 5 days [1] [µM] | % 0 min (residue percentage) [2] [%] | % 60 min (residue percentage) [2] [%] | % 120 min (residue percentage) [2] [%] | % 360 min (residue percentage) [2] [%] | % 1440 min (residue percentage) [2] [%] | % 0 min (residue percentage) [3] [%] | % 60 min (residue percentage) [3] [%] | % 120 min (residue percentage) [3] [%] | % 360 min (residue percentage) [3] [%] | % 1440 min (residue percentage) [3] [%] | % 0 min (residue percentage) [4] [%] | % 10 min (residue percentage) [4] [%] | % 30 min (residue percentage) [4] [%] | % 60 min (residue percentage) [4] [%] | % 120 min (residue percentage) [4] [%] | CLlint(s9) [5] [µL/min/mg] | half-life at 1 μM [5] [min] | further results |
| --- | --- | --- | --- | --- | --- | --- | --- | --- | --- | --- | --- | --- | --- | --- | --- | --- | --- | --- | --- | --- | --- |
| Cc1ccccc1CO[P@@](=O)(CO[C@H](C)Cn1cnc2c(N)ncnc21)N[C@@H](C)C(=O)OC(C)C [Compound 7b] | 6.56 | 7.08 | 14.7 | 100 | 82.76 | 51.39 | 13.16 | 0.00 | 100 | 31.28 | 8.33 | 0.09 | 0.00 | 100 | 93.5 | 91.6 | 90.5 | 90.1 | 147.4 | 4.7 | CC50 (in vitro; comparative test, Table 4): > 100 µM; Remaining (T = 60 min) [5]: 5%; CLlint(s9) ([5]; scaled per kg): 0.519 mL/min/kg; pIC50 (hERG K-channel): < 5.00 |
| CC(C)OC(=O)[C@H](C)N[P@](=O)(CO[C@H](C)Cn1cnc2c(N)ncnc21)OCc1ccccc1 (single isomer, unassigned) [Compound 3b] | 8.22 | 8.01 | 16.9 | 100 | 84.26 | 58.54 | 17.28 | 0.00 | 100 | 51.07 | 20.20 | 0.23 | 0.00 | 100 | 97.1 | 96.4 | 96.1 | 93.7 | 68.6 | 10.1 | pEC50 (HBV; HBV DNA in supernatant on 8th day, Table 3): > 8.00; CC50 (in vitro; [7]): > 100 µM; CC50 (HepG2.2.15 cells): > 100 µM; Remaining (T = 60 min) [5]: 9%; CLlint(s9) ([5]; scaled per kg): 0.2415 mL/min/kg; pIC50 (hERG K-channel): < 4.52 |
| CC(C)OC(=O)OCOP(=O)(CO[C@H](C)Cn1cnc2c(N)ncnc21)OCOC(=O)OC(C)C [TDF, Tenofovir Disoproxil Fumarate] | – | 7.77 | 21.3 | – | – | – | – | – | – | – | – | – | – | – | – | – | – | – | – | – | fraction excreted out of the body in original form [6]: ~80%; fraction metabolized and activated into the Tenofovir parent drug under the action of esterase [6]: less than 20% |
| CC(C)OC(=O)[C@H](C)N[P@@](=O)(CO[C@H](C)Cn1cnc2c(N)ncnc21)OCc1ccccc1 (single isomer, unassigned) [Compound 3a] | 8.47 | 8.29 | 22.5 | 100 | 85.40 | 58.07 | 14.41 | 0.00 | 100 | 53.62 | 23.45 | 1.26 | 0.00 | 100 | 97.4 | 98.9 | 97.8 | 94.5 | 70.0 | 9.9 | CC50 (in vitro; [7]): > 100 µM; CC50 (HepG2.2.15 cells): > 100 µM; Remaining (T = 60 min) [5]: 6%; CLlint(s9) ([5]; scaled per kg): 0.2464 mL/min/kg; pIC50 (hERG K-channel): < 5.00 |
